ChEMBL document CHEMBL4011618, “Discovery of Potent, Selective Stem Cell Factor Receptor/Platelet Derived Growth Factor Receptor Alpha (c-KIT/PDGFRα) Dual Inhibitor for the Treatment of Imatinib-Resistant Gastrointestinal Stromal Tumors (GISTs)” (J Med Chem, 2017)

Assays:
[1] = target: Platelet-derived growth factor receptor alpha (Homo sapiens, UniProt P16234)
Description: Inhibition of TEL-fused PDGFRalpha (unknown origin) expressed in mouse BAF3 cells assessed as cell growth inhibition after 72 hrs by cell titer-glo assay

[2] = Cmax in Sprague-Dawley rat at 25 mg/kg, ip up to 24 hrs post dose by LC/MS/MS analysis; format: ADME, organism-based; design: dose 25 mg/kg, route intraperitoneal; settings: in vivo
Mus musculus [3] = test: Toxicity in nu/nu mouse allografted with mouse BAF3 cells harboring TEL-cKIT-T670I mutant assessed as change in body weight at 25 to 100 mg/kg, ip administered daily for 11 days relative to control; format: organism-based; settings: in vivo, 264 h
[4] = target: Receptor-type tyrosine-protein kinase FLT3 (Homo sapiens, UniProt P36888); test: Inhibition of human His-tagged FLT3 (564 to 958 residues) expressed in baculovirus by ELISA
[5] = test system: Mast/stem cell growth factor receptor Kit (Homo sapiens), P10721 [C674S]
Description: Inhibition of TEL-fused cKIT C674S mutant (unknown origin) expressed in mouse BAF3 cells assessed as cell growth inhibition after 72 hrs by cell titer-glo assay

[6] = Tmax in Sprague-Dawley rat at 25 mg/kg, ip up to 24 hrs post dose by LC/MS/MS analysis; format: ADME, organism-based; settings: in vivo
[7] = target: Vascular endothelial growth factor receptor 3 (Homo sapiens, UniProt P35916); test: Inhibition of human GST-tagged FLT4 (800 to 1297 residues) expressed in baculovirus by ELISA
[8] = AUC (0 to t) in Sprague-Dawley rat at 2 mg/kg, iv up to 24 hrs post dose by LC/MS/MS analysis; format: ADME, organism-based; design: dose 2 mg/kg, time < 24 hr, route intravenous; settings: in vivo
MEG-01 = test: Antiproliferative activity against human MEG01 cells assessed as cell growth inhibition after 72 hrs by cell titer-glo assay; format: functional; settings: MEG-01, 72 h
[9] = Half life in Sprague-Dawley rat at 25 mg/kg, ip up to 24 hrs post dose by LC/MS/MS analysis; format: ADME, organism-based; settings: in vivo
KU812 cell line = test: Antiproliferative activity against human KU812 cells assessed as cell growth inhibition after 72 hrs by cell titer-glo assay; format: functional; settings: KU812, 72 h
[10] = MRT (0 to t) in Sprague-Dawley rat at 25 mg/kg, ip up to 24 hrs post dose by LC/MS/MS analysis; format: ADME, organism-based; settings: in vivo
[11] = MRT (0 to infinity) in Sprague-Dawley rat at 100 mg/kg, ip up to 24 hrs post dose by LC/MS/MS analysis; format: ADME, organism-based; settings: in vivo
[12] = Half life in Sprague-Dawley rat at 100 mg/kg, ip up to 24 hrs post dose by LC/MS/MS analysis; format: ADME, organism-based; settings: in vivo
BaF3 = test: Antitumor activity against mouse BAF3 cells harboring TEL-cKIT-T670I mutant allografted in nu/nu mouse assessed as tumor growth inhibition at 100 mg/kg, ip administered daily for 11 days relative to control; format: functional; settings: 264 h, read-out: TGI
[13] = test system: Platelet-derived growth factor receptor alpha (Homo sapiens), P16234 [T674I]
Description: Inhibition of TEL-fused PDGFRalpha T674I mutant (unknown origin) expressed in mouse BAF3 cells assessed as cell growth inhibition after 72 hrs by cell titer-glo assay

[14] = target: Mast/stem cell growth factor receptor Kit (Homo sapiens, UniProt P10721)
Description: Inhibition of TEL-fused cKIT (unknown origin) expressed in mouse BAF3 cells assessed as cell growth inhibition after 72 hrs by cell titer-glo assay

[15] = target: Tyrosine-protein kinase ABL2 (Homo sapiens) (UniProt P42684); test: Inhibition of human wild type ABL2 (248 to 542 residues) expressed in bacterial expression system assessed as activity remaining at 1 uM by KINOMEscan assay relative to control
[16] = Volume of distribution at steady state in Sprague-Dawley rat at 2 mg/kg, iv up to 24 hrs post dose by LC/MS/MS analysis; format: ADME, organism-based; settings: in vivo, read-out: Vdss
Mus musculus [17] = test: Toxicity in nu/nu mouse xenografted with human GISTT1 cells assessed as mortality at 25 to 100 mg/kg, ip administered daily for 28 days measured during compound dosing; format: organism-based; settings: in vivo, 672 h
[18] = Half life in rat liver microsomes at 1 uM in presence of NADPH by LC-MS/MS; format: ADME, microsome
[19] = test system: Mast/stem cell growth factor receptor Kit (Homo sapiens), P10721 [N822K]
Description: Inhibition of TEL-fused cKIT N822K mutant (unknown origin) expressed in mouse BAF3 cells assessed as cell growth inhibition after 72 hrs by cell titer-glo assay

[20] = test system: Mast/stem cell growth factor receptor Kit (Homo sapiens), P10721 [T670I]
Description: Inhibition of TEL-fused cKIT T670I mutant (unknown origin) expressed in mouse BAF3 cells assessed as cell growth inhibition after 72 hrs by cell titer-glo assay

[21] = test system: Mast/stem cell growth factor receptor Kit (Homo sapiens), P10721 [V559D,T670I]
[22] = test system: Mast/stem cell growth factor receptor Kit (Homo sapiens), P10721 [D816H]
Description: Inhibition of TEL-fused cKIT D816H mutant (unknown origin) expressed in mouse BAF3 cells assessed as cell growth inhibition after 72 hrs by cell titer-glo assay

GIST882 = test: Antiproliferative activity against human GIST882 cells assessed as cell growth inhibition after 72 hrs by cell titer-glo assay; format: functional; settings: GIST882, 72 h
[23] = AUC (0 to infinity) in Sprague-Dawley rat at 2 mg/kg, iv up to 24 hrs post dose by LC/MS/MS analysis; format: ADME, organism-based; design: dose 2 mg/kg, route intravenous, time infinity; settings: in vivo
[24] = MRT (0 to t) in Sprague-Dawley rat at 2 mg/kg, iv up to 24 hrs post dose by LC/MS/MS analysis; format: ADME, organism-based; settings: in vivo
[25] = Cmax in Sprague-Dawley rat at 2 mg/kg, iv up to 24 hrs post dose by LC/MS/MS analysis; format: ADME, organism-based; design: dose 2 mg/kg, route intravenous; settings: in vivo
[26] = AUC (0 to t) in Sprague-Dawley rat at 100 mg/kg, ip up to 24 hrs post dose by LC/MS/MS analysis; format: ADME, organism-based; design: dose 100 mg/kg, time < 24 hr, route intraperitoneal; settings: in vivo
[27] = test system: Mast/stem cell growth factor receptor Kit (Homo sapiens), P10721 [D816V]
Description: Inhibition of TEL-fused cKIT D816V mutant (unknown origin) expressed in mouse BAF3 cells assessed as cell growth inhibition after 72 hrs by cell titer-glo assay

Mus musculus [28] = test: Toxicity in nu/nu mouse xenografted with human GISTT1 cells assessed as body weight loss at 25 to 100 mg/kg, ip administered daily for 28 days measured during compound dosing; format: organism-based; settings: in vivo, 672 h
[29] = target: Macrophage colony-stimulating factor 1 receptor (Homo sapiens, UniProt P07333); test: Inhibition of human full length His-tagged CSF1R expressed in baculovirus by Z'Lyte assay
[30] = Cmax in Sprague-Dawley rat at 100 mg/kg, ip up to 24 hrs post dose by LC/MS/MS analysis; format: ADME, organism-based; design: dose 100 mg/kg, route intraperitoneal; settings: in vivo
GISTT1 = test: Antiproliferative activity against human GISTT1 cells assessed as cell growth inhibition after 72 hrs by cell titer-glo assay; format: functional; settings: GISTT1, 72 h
[31] = Tmax in Sprague-Dawley rat at 2 mg/kg, iv up to 24 hrs post dose by LC/MS/MS analysis; format: ADME, organism-based; settings: in vivo
[32] = AUC (0 to t) in Sprague-Dawley rat at 25 mg/kg, ip up to 24 hrs post dose by LC/MS/MS analysis; format: ADME, organism-based; design: dose 25 mg/kg, time < 24 hr, route intraperitoneal; settings: in vivo
[33] = test system: Mast/stem cell growth factor receptor Kit (Homo sapiens), P10721 [V654A]
Description: Inhibition of TEL-fused cKIT V654A mutant (unknown origin) expressed in mouse BAF3 cells assessed as cell growth inhibition after 72 hrs by cell titer-glo assay

[34] = Antiproliferative activity against CHO cells assessed as cell growth inhibition after 72 hrs by cell titer-glo assay; format: cell-based, Cricetulus griseus; settings: chinese hamster
[35] = target: Vascular endothelial growth factor receptor 2 (Homo sapiens, UniProt P35968)
Sequence of Vascular endothelial growth factor receptor 2 (P35968 whole entry): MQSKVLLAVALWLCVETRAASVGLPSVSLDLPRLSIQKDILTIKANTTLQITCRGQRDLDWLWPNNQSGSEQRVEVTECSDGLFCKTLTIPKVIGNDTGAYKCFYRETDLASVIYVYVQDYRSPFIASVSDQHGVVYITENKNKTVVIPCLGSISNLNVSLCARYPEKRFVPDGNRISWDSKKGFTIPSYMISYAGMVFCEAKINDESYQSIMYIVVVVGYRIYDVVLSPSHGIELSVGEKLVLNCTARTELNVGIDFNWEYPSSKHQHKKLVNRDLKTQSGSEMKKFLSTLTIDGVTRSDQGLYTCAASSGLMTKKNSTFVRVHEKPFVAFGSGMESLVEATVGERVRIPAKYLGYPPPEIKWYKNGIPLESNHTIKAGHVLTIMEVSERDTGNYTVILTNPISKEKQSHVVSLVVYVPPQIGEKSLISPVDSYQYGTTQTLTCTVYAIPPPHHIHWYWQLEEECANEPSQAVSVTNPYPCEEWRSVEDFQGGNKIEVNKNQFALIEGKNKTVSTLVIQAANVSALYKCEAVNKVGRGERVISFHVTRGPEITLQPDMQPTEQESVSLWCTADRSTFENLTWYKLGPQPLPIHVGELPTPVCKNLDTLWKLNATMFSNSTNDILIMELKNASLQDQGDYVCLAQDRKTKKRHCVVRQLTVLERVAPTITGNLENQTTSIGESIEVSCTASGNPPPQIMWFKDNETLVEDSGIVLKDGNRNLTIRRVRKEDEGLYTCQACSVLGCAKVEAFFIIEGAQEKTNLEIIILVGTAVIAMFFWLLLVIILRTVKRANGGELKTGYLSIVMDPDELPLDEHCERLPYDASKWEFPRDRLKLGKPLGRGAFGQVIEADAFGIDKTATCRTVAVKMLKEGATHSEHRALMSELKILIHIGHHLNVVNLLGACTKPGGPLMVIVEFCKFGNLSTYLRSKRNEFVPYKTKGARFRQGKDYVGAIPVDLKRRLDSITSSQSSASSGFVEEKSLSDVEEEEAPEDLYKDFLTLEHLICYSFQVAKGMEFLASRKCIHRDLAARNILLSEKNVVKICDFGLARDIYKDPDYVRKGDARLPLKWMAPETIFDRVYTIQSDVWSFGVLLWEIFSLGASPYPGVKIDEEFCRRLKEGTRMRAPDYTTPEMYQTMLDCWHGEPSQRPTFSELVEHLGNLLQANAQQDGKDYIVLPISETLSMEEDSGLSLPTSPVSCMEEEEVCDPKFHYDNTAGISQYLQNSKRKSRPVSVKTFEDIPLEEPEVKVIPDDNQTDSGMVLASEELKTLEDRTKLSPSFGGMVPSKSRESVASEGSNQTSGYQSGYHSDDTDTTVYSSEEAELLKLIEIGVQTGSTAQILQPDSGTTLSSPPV
Description: Inhibition of VEGFR2 (unknown origin) using FAM-labeled peptide as substrate preincubated for 10 mins followed by substrate addition in presence of ATP by mobility shift assay

Sequence of Mast/stem cell growth factor receptor Kit (Homo sapiens), P10721 [D816V] (P10721 whole entry D816V): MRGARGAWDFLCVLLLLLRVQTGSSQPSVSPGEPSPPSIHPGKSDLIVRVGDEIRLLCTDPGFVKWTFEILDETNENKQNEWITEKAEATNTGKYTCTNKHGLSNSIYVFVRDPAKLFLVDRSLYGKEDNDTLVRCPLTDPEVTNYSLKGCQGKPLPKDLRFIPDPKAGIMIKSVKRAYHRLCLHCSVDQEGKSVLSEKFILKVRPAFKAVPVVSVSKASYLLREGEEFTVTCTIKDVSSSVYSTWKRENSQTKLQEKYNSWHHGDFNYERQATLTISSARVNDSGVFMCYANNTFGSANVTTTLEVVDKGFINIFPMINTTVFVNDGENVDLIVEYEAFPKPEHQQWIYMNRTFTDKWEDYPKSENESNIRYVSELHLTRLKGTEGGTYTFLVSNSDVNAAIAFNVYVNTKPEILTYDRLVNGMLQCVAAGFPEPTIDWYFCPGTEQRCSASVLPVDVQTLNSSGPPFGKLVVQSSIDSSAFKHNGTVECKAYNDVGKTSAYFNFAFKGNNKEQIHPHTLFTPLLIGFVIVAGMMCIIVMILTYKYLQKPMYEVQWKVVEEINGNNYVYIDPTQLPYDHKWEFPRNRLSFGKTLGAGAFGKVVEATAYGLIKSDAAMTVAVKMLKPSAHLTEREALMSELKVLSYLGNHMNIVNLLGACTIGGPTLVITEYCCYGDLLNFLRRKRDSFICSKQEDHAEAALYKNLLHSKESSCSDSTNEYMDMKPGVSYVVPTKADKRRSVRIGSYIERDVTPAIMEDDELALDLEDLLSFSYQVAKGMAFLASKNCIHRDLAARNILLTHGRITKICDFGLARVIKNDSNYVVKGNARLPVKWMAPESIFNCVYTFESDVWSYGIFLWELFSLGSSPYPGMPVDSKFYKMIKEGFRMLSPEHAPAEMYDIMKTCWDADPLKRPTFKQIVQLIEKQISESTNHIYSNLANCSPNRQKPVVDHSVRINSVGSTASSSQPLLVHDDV
Sequence of Mast/stem cell growth factor receptor Kit (Homo sapiens), P10721 [D816H] (P10721 whole entry D816H): as the sequence (P10721 whole entry D816V) above, with V816H counted along it
Sequence of Mast/stem cell growth factor receptor Kit (Homo sapiens), P10721 [T670I] (P10721 whole entry T670I): as the sequence (P10721 whole entry D816V) above, with T670I, V816D counted along it

Compound: Cc1cc(NC(=O)Nc2ccc(-c3ccnc4[nH]nc(C)c34)cc2)ccc1N1CCOCC1
- GI50 [1]: 0.0104 µM
- Cmax [2]: 0.117 µg/mL
- Activity (Mus musculus [3]): Non-Toxic
- IC50 [4]: 0.002 µM
- GI50 [5]: 0.0105 µM
- Tmax [6]: 4 h
- IC50 [7]: 0.072 µM
- AUC(0-t) at 24 h [8]: 2.24 µg·h/mL
- GI50 (MEG-01): 9.09 µM
- half-life [9]: 5.09 h
- GI50 (KU812 cell line): > 10 µM
- MRT last at 24 h [10]: 5.67 h
- MRT inf [11]: 14.8 h
- half-life [12]: 11 h
- inhibition in vivo at 100 mg/kg (BaF3): 41.9%
- GI50 [13]: 0.135 µM
- GI50 [14]: 0.0181 µM
- Activity [15]: > 35%
- Vd [16]: 0.97 L/kg
- Activity (Mus musculus [17]): Non-Toxic
- half-life at 1 µM [18]: 0.779 h
- GI50 [19]: 0.0111 µM
- GI50 [20]: 0.0392 µM
- GI50 [21]: 0.0364 µM
- GI50 [22]: 0.134 µM
- GI50 (GIST882): < 0.003 µM
- AUC(0-inf) [23]: 2.25 µg·h/mL
- MRT last at 24 h [24]: 1.13 h
- Cmax [25]: 1.89 µg/mL
- AUC(0-t) at 24 h [26]: 4.25 µg·h/mL
- GI50 [27]: > 10 µM
- Activity (Mus musculus [28]): Non-Toxic
- IC50 [29]: 0.16 µM
- Cmax [30]: 0.656 µg/mL
- GI50 (GISTT1): < 0.003 µM
- Tmax [31]: 4.98 min
- AUC(0-t) at 24 h [32]: 0.691 µg·h/mL
- GI50 [33]: 0.137 µM
- GI50 at 72 h [34]: > 10 µM
- IC50 [35]: 2.28 µM
